Test system: 616215-338-R-J1-PDC complex spheroid growth, % test/control
Test: Anticancer human tumor 616215-338-R-J1-PDC patient-derived colon adenocarcinoma cell line growth inhibition [Asc]
Details: for IC50: curve of first compound; for viability, T/C: stronger effect = lower value
Summary of the method: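 Spheroid model: tumor line + HUVEC + hMSC. Single agents and combinations; top conc. at/near clinical Cmax (10 microM if undetermined), half-log dilutions. DMSO stocks at 800-fold test concentration.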
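Note: spheroids exposed to agents for seven days before readout.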
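Throughout, for viability, T/C: 100% = DMSO vehicle control viability.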

NC1CCC(NC2CC2c2ccccc2)CC1 (configuration not stated) + CNC(C)C(=O)NC1CN(S(=O)(=O)c2cccc(S(=O)(=O)N3CCC4CCC(C(=O)NC(c5ccccc5)c5ccccc5)N4C(=O)C(NC(=O)C(C)NC)C3)c2)CCC2CCC(C(=O)NC(c3ccccc3)c3ccccc3)N2C1=O
IC50 (second compound 0.00316 µM): > 100 nM
IC50 (second compound 0.01 µM): > 100 nM
IC50 (second compound 0.0316 µM): > 100 nM
IC50 (second compound 0.1 µM): > 100 nM
IC50 (second compound 0.316 µM): > 100 nM
IC50 (second compound 1 µM): > 100 nM
viability, T/C (second compound 0.00316 µM, first compound 0.000316 µM): 101%
viability, T/C (second compound 0.00316 µM, first compound 0.001 µM): 94.2%
viability, T/C (second compound 0.00316 µM, first compound 0.00316 µM): 73.6%
viability, T/C (second compound 0.00316 µM, first compound 0.01 µM): 93.9%
viability, T/C (second compound 0.00316 µM, first compound 0.0316 µM): 103%
viability, T/C (second compound 0.00316 µM, first compound 0.1 µM): 91%
viability, T/C (second compound 0.01 µM, first compound 0.000316 µM): 96.7%
viability, T/C (second compound 0.01 µM, first compound 0.001 µM): 93.9%
viability, T/C (second compound 0.01 µM, first compound 0.00316 µM): 95.7%
viability, T/C (second compound 0.01 µM, first compound 0.01 µM): 100%
viability, T/C (second compound 0.01 µM, first compound 0.0316 µM): 95.2%
viability, T/C (second compound 0.01 µM, first compound 0.1 µM): 98%
viability, T/C (second compound 0.0316 µM, first compound 0.000316 µM): 92%
viability, T/C (second compound 0.0316 µM, first compound 0.001 µM): 89.8%
viability, T/C (second compound 0.0316 µM, first compound 0.00316 µM): 89.9%
viability, T/C (second compound 0.0316 µM, first compound 0.01 µM): 82.8%
viability, T/C (second compound 0.0316 µM, first compound 0.0316 µM): 96.1%
viability, T/C (second compound 0.0316 µM, first compound 0.1 µM): 95.3%
viability, T/C (second compound 0.1 µM, first compound 0.000316 µM): 100%
viability, T/C (second compound 0.1 µM, first compound 0.001 µM): 87%
viability, T/C (second compound 0.1 µM, first compound 0.00316 µM): 92.2%
viability, T/C (second compound 0.1 µM, first compound 0.01 µM): 99%
viability, T/C (second compound 0.1 µM, first compound 0.0316 µM): 98.7%
viability, T/C (second compound 0.1 µM, first compound 0.1 µM): 89.8%
viability, T/C (second compound 0.316 µM, first compound 0.000316 µM): 103%
viability, T/C (second compound 0.316 µM, first compound 0.001 µM): 94.2%
viability, T/C (second compound 0.316 µM, first compound 0.00316 µM): 88.4%
viability, T/C (second compound 0.316 µM, first compound 0.01 µM): 97.5%
viability, T/C (second compound 0.316 µM, first compound 0.0316 µM): 102%
viability, T/C (second compound 0.316 µM, first compound 0.1 µM): 90.7%
viability, T/C (second compound 1 µM, first compound 0.000316 µM): 103%
viability, T/C (second compound 1 µM, first compound 0.001 µM): 91%
viability, T/C (second compound 1 µM, first compound 0.00316 µM): 95.4%
viability, T/C (second compound 1 µM, first compound 0.01 µM): 72.9%
viability, T/C (second compound 1 µM, first compound 0.0316 µM): 98.5%
viability, T/C (second compound 1 µM, first compound 0.1 µM): 84.7%
